System: 994946-033-R-J1-PDC complex spheroid viability
Test: Anticancer human tumor 994946-033-R-J1-PDC patient-derived melanoma cell line growth inhibition [POLQ]
Conditions: for IC50: curve of first compound; for viability, T/C: stronger effect = lower value
Protocol: Multicellular complex tumor spheroid response to Polymerase (POL) inhibitors (novobiocin, ART-558, RP6685) in combination with a variety of drugs and investigational agents in selected tumor cell lines
The POL inhibitors (novobiocin, ART-558, and RP6685) were evaluated both individually and in combination with standard of care and investigational anticancer small molecules within a complex spheroid model of solid tumors. . Complex spheroids include a stromal component modeled by human endothelial cells (HUVEC) and fibroblasts modeled by human mesenchymal stem cells (MSCs). The concentration ranges selected for each drug and investigational agent were based upon clinically achievable concentrations if the clinical Cmax of the agent was known.
Compounds. The drugs and investigational agents: novobiocin (NSC847541), ART-558 (NSC835418), RP-6685 (NSC848927), peposertib (NSC802822), ceralasertib (NSC780249), elimusertib (NSC800525), camonsertib (NSC841442), AZD-1390 (NSC803789), olaparib (NSC753686), talazoparib (NSC767125), rucaparib (NSC756644), sotorasib (NSC818433), MRTX-1133 (NSC836407), SN-38 (NSC673596), topotecan (NSC609699), epotoside (NSC141540), doxorubicin (NSC123127), gemcitabine (NSC613327), 5-fluorouracil (NSC19893), paclitaxel (NSC125973), vemurafenib (NSC761431), MSA-2 (NSC828583), SN-011 (NSC837082), adavosertib (NSC754352), prexasertib (NSC758257), carboplatin (NSC241240) and oxaliplatin (NSC266046), were obtained from the National Cancer Institute (NCI) Developmental Therapeutics Program Chemical Repository (21). The FDA-approved anticancer drug set is available from the Developmental Therapeutics Program at https://dtp.cancer.gov/organization/dscb/obtaining/. […] The stock solutions were prepared in dimethyl sulfoxide (DMSO, Sigma-Aldrich, St. Louis, MO, cat. D2650), except for the platinum compounds which were prepared in saline (Quality Biological, Gaithersburg, MD, cat. 114-055-101), at 800-fold the tested concentration and stored at -70 degrees C prior to their use. All drugs and investigational agents were tested over a range starting from a high concentration at or near the clinical Cmax and decreasing in half-log increments. If the clinical Cmax for an agent had not been determined, the highest concentration tested was 10 microM, except for SN-38, which was tested at a high concentration of 1 microM.
Cell Culture. All cells were maintained in an incubator at 37 degrees C and 5% CO2 with 95% humidity. The PDC lines were cultured according to standard operating procedures established by the NCI PDMR (https://pdmr.cancer.gov). Table 3 of the manuscript, lists the cell lines along with the number of the three cell types plated to form the mct-spheroids and media for tumor cell growth. After thawing, all PDC lines, except 997537-175-T-J1-PDC and 415267-285-R-J2-PDC, were cultured in Matrigel-coated flasks prepared with a working solution of 1X Ham's F-12 nutrient mix, without supplementation (Thermo Fisher Scientific, cat. 11765054), 100 U/mL penicillin-streptomycin (Thermo Fisher Scientific, cat. 15140122), and 2.5% Matrigel (Corning Inc., Corning, NY, cat. 354248) for the first three passages. The two PDC lines 997537-175-T-J1-PDC and 415267-285-R-J2-PDC were cultured on uncoated flasks. The 857933-349-R-J2-PDC line was cultured in 6C/Colon 1B media containing advanced DMEM/F-12 (Thermo Fisher Scientific, cat. 12634028), 10 mM HEPES (Thermo Fisher Scientific, cat. 15630080), 1X GlutaMAX supplement (Thermo Fisher Scientific, cat. 35050061), 0.1 mg/mL primocin (InvivoGen, San Diego, CA, cat. ant-pm-2), 10% defined fetal bovine serum, heat inactivated (HyClone Laboratories Inc., Logan, UT, cat. SH30070.03HI), 50% L-WRN conditioned media (ATCC, cat. CRL-3276), 1.25 mM N-Acetyl-L-cysteine (Sigma-Aldrich, cat. A9165), 10 mM nicotinamide (Sigma-Aldrich, cat. N0636), 1X B-27 supplement (Thermo Fisher Scientific, cat. 17504044), 1X N-2 supplement (Thermo Fisher Scientific, cat. […]

[1] = second compound 0.0316 µM, first compound 0.0316 µM
[2] = second compound 0.0316 µM, first compound 0.1 µM
[3] = second compound 0.0316 µM, first compound 0.316 µM
[4] = second compound 0.0316 µM, first compound 1 µM
[5] = second compound 0.0316 µM, first compound 3.16 µM
[6] = second compound 0.0316 µM, first compound 10 µM
[7] = second compound 0.1 µM, first compound 0.0316 µM
[8] = second compound 0.1 µM, first compound 0.1 µM
[9] = second compound 0.1 µM, first compound 0.316 µM
[10] = second compound 0.1 µM, first compound 1 µM
[11] = second compound 0.1 µM, first compound 3.16 µM
[12] = second compound 0.1 µM, first compound 10 µM
[13] = second compound 0.316 µM, first compound 0.0316 µM
[14] = second compound 0.316 µM, first compound 0.1 µM
[15] = second compound 0.316 µM, first compound 0.316 µM
[16] = second compound 0.316 µM, first compound 1 µM
[17] = second compound 0.316 µM, first compound 3.16 µM
[18] = second compound 0.316 µM, first compound 10 µM
[19] = second compound 1 µM, first compound 0.0316 µM
[20] = second compound 1 µM, first compound 0.1 µM
[21] = second compound 1 µM, first compound 0.316 µM
[22] = second compound 1 µM, first compound 1 µM
[23] = second compound 1 µM, first compound 3.16 µM
[24] = second compound 1 µM, first compound 10 µM
[25] = second compound 3.16 µM, first compound 0.0316 µM
[26] = second compound 3.16 µM, first compound 0.1 µM
[27] = second compound 3.16 µM, first compound 0.316 µM
[28] = second compound 3.16 µM, first compound 1 µM
[29] = second compound 3.16 µM, first compound 3.16 µM
[30] = second compound 3.16 µM, first compound 10 µM
[31] = second compound 10 µM, first compound 0.0316 µM
[32] = second compound 10 µM, first compound 0.1 µM
[33] = second compound 10 µM, first compound 0.316 µM
[34] = second compound 10 µM, first compound 1 µM
[35] = second compound 10 µM, first compound 3.16 µM
[36] = second compound 10 µM, first compound 10 µM
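Further: spheroids exposed to drugs for 7 days.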
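Wherever viability, T/C is given: 100% = DMSO vehicle treated spheroids.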

COc1ccc([C@@H](O)c2cc(-c3ncnc4cc(N5CCOCC5)ccc34)c(F)cc2Cl)nn1 + Cc1cccc(N(C)C(=O)C2C(O)CCN2c2nc(C)cc(C(F)(F)F)c2C#N)c1
IC50 (second compound 0.0316 µM): 4060 nM
IC50 (second compound 0.1 µM): 6540 nM
IC50 (second compound 0.316 µM): 2250 nM
IC50 (second compound 1 µM): 6160 nM
IC50 (second compound 3.16 µM): 2650 nM
IC50 (second compound 10 µM): 6200 nM
viability, T/C [1]: 108%
viability, T/C [2]: 95.1%
viability, T/C [3]: 106%
viability, T/C [4]: 64.1%
viability, T/C [5]: 60.7%
viability, T/C [6]: 32.5%
viability, T/C [7]: 90.9%
viability, T/C [8]: 105%
viability, T/C [9]: 93.3%
viability, T/C [10]: 78.5%
viability, T/C [11]: 71.6%
viability, T/C [12]: 38.4%
viability, T/C [13]: 118%
viability, T/C [14]: 94.1%
viability, T/C [15]: 103%
viability, T/C [16]: 60.4%
viability, T/C [17]: 45.6%
viability, T/C [18]: 45.1%
viability, T/C [19]: 104%
viability, T/C [20]: 96.6%
viability, T/C [21]: 82%
viability, T/C [22]: 105%
viability, T/C [23]: 60.9%
viability, T/C [24]: 42.1%
viability, T/C [25]: 115%
viability, T/C [26]: 125%
viability, T/C [27]: 101%
viability, T/C [28]: 60.5%
viability, T/C [29]: 56.8%
viability, T/C [30]: 38.6%
viability, T/C [31]: 74.9%
viability, T/C [32]: 101%
viability, T/C [33]: 60.3%
viability, T/C [34]: 76.6%
viability, T/C [35]: 62.7%
viability, T/C [36]: 41.1%

Nc1ccn(C2OC(CO)C(O)C2(F)F)c(=O)n1 (centres undefined) + Cc1cccc(N(C)C(=O)C2C(O)CCN2c2nc(C)cc(C(F)(F)F)c2C#N)c1
IC50 (second compound 0.0316 µM): < 31.6 nM
IC50 (second compound 0.1 µM): < 31.6 nM
IC50 (second compound 0.316 µM): < 31.6 nM
IC50 (second compound 1 µM): < 31.6 nM
IC50 (second compound 3.16 µM): < 31.6 nM
IC50 (second compound 10 µM): < 31.6 nM
viability, T/C [1]: 26.7%
viability, T/C [2]: 6.28%
viability, T/C [3]: 4.88%
viability, T/C [4]: 6.63%
viability, T/C [5]: 3.54%
viability, T/C [6]: 2.78%
viability, T/C [7]: 49.3%
viability, T/C [8]: 5.24%
viability, T/C [9]: 5.13%
viability, T/C [10]: 4.71%
viability, T/C [11]: 4.54%
viability, T/C [12]: 2.88%
viability, T/C [13]: 24.7%
viability, T/C [14]: 5.51%
viability, T/C [15]: 5.07%
viability, T/C [16]: 4.92%
viability, T/C [17]: 4.06%
viability, T/C [18]: 1.82%
viability, T/C [19]: 23.1%
viability, T/C [20]: 7.5%
viability, T/C [21]: 4.98%
viability, T/C [22]: 4.8%
viability, T/C [23]: 4.33%
viability, T/C [24]: 2.48%
viability, T/C [25]: 39.7%
viability, T/C [26]: 6.77%
viability, T/C [27]: 4.52%
viability, T/C [28]: 5.28%
viability, T/C [29]: 4.61%
viability, T/C [30]: 2.97%
viability, T/C [31]: 48.6%
viability, T/C [32]: 13.3%
viability, T/C [33]: 6.55%
viability, T/C [34]: 5.55%
viability, T/C [35]: 5.13%
viability, T/C [36]: 1.86%
